Experimental findings from US20160264636A1, “PEPTIDE INHIBITORS OF TEAD/YAP-TAZ INTERACTION” (UNIVERSITE PIERRE ET MARIE CURIE (PARIS 6), priority 2013, published 2016) are described below.

Format in all cases: cell-based
One assay deals with ES2 cells. The experiment in a line: MTT cytotoxicity assay, ES2. The following applies: for Letal Dose (μM) LD25: Table VIII, 72 h, MTT, 25% cell death; for Cell viability (%): Table IX. The method, then: (§1) The cytotoxicity of penetrating peptides or chemotherapeutic agents, alone or in combination, was evaluated by the (3-(4,5-dimethylthiazol-2-yl)-2,5-diphenyltetrazolium bromide) tetrazolium (MTT) reduction assay. The cells were seeded in 96-well plates (100 μL/well) at a cell density defined from growth curves. After 24 hours of incubation, cells were treated with the peptides for 72 hours. The wells were rinsed two times with RPMI. After washing, 10 μl of stock MTT solution (5 mg/ml; MTT (SIGMA #M-2128) in PBS Dubecco's 1× without Ca^2+ and Mg^2+) was added to a final volume of 100 μl of culture medium. Cell lines were incubated for additional 4 hours at 37° C. under humid atmosphere with 5% (v/v) CO2. The formation of blue formazan crystals was detected under a microscope. An equal volume of 10% SDS (MERCK, #926.238) in 10 mM HCl was added to each well and the plate was placed in the incubator overnight to dissolve formazan crystals. The plates were mixed to ensure complete solubilisation of formazan crystals and absorbance was measured at 570 nm and 620 nm. The percentage of viable cells was estimated using the formula: % cell viability=ΔOD(570-620) treated/ΔOD(570-620)control×100.
(§2) ES2, IGROV-1, OVCAR8 and SKOV3 cell lines come from human ovarian cancer.
(§3) Cell-penetrating peptides (CPPs) comprising the binding site of TEAD to TAZ or YAP or of YAP to TEAD (TAZ, TEAD and YAP peptides, respectively) were chemically synthesized. The effect of the peptides on cell viability was assayed on several human ovarian cancer cell lines. All the ovarian cancer cell lines were treated for 72 h with different peptide concentrations. Cytotoxicity was analysed as described in example 2.
For orientation: Formazan colour is commonly taken as a measure of viable cells.

The subject of the next assay is SKOV3 cells. The experiment in a line: MTT cytotoxicity assay, SKOV3. The following applies: for Letal Dose (μM) LD25: Table VIII, 72 h, MTT, 25% cell death; for Cell viability (%): Table IX. The procedure: as §1, §2, §3
The subject of a further assay is IGROV-1 cells. As to the kind of experiment: MTT cytotoxicity assay, IGROV. The following applies: for Letal Dose (μM) LD25: Table VIII, 72 h, MTT, 25% cell death; for Cell viability (%): Table IX. The method, then:
as §1, §2, §3

A further assay has as its system OVCAR8 cells. The experiment in a line: MTT cytotoxicity assay, OVCAR8. The following applies: for Letal Dose (μM) LD25: Table VIII, 72 h, MTT, 25% cell death; for Cell viability (%): Table IX. The method, then:
as §1, §2, §3

For the next assay, the system named is A549 cells. The following applies: for Letal Dose (μM) LD25: Table II, 72 h, MTT, 25% cell death. The method, then:
(§4) H1650, H1975, H1299, A549 cell lines were cultured in DMEM medium supplemented with 10% of FCS. HBEC cell lines (wt and Ras V12) were cultured in KSFM supplemented with growth factors. All the cell lines come from human non small cell lung cancer (NSCLC).
as §1
(§5) Cell-penetrating peptides (CPPs) comprising the binding site of TEAD to TAZ or YAP or of YAP to TEAD (TAZ, TEAD and YAP peptides, respectively) were chemically synthesized. The effect of the peptides on cell viability was assayed on several human non small cell lung cancer (NSCLC) cell lines. All the lung cancer cell lines were treated for 72 h with different peptide concentrations. Cytotoxicity was analysed as described in Materials and Methods.

The test system of the next assay is H1299 cells. The following applies: for Letal Dose (μM) LD25: Table II, 72 h, MTT, 25% cell death. The method, then: as §4, §1, §5
A further assay has as its system H1650 cells. The settings on record: for Letal Dose (μM) LD25: Table II, 72 h, MTT, 25% cell death. The method, then:
as §4, §1, §5

In the next assay the test system is H1975 cells. The following applies: for Letal Dose (μM) LD25: Table II, 72 h, MTT, 25% cell death. The method, then:
as §4, §1, §5

A further assay deals with HBEC RasV12 cells. The following applies: for Letal Dose (μM) LD25: Table II, 72 h, MTT, 25% cell death. The procedure: as §4, §1, §5
For the next assay, the system named is HBEC wt cells. The following applies: for Letal Dose (μM) LD25: Table II, HBEC WT, 72 h, MTT, 25% cell death; for Cell viability (%): HBEC wt. The procedure: as §4, §1, §5
The mark [1] stands for this setting: Table III, drug alone vs its vehicle (HPCD10%, NaCl or Glucose 5%).
The mark [2] stands for this setting: Table IV, drug alone vs its vehicle (Glucose 5% or NaCl).
The mark [3] stands for this setting: Table V, drug alone vs its vehicle (Glucose 5% or NaCl).
Setting [4] is: Table VI, peptide alone vs HPCD 10%.

Read-outs that look alike come from different tables or passages of the source.

`CC(=O)O[C@H]1C(=O)[C@@]2(C)[C@H]([C@H](OC(=O)c3ccccc3)[C@]3(O)C[C@H](OC(=O)[C@H](O)[C@@H](NC(=O)c4ccccc4)c4ccccc4)C(C)=C1C3(C)C)[C@]1(OC(C)=O)CO[C@@H]1C[C@@H]2O` [Paclitaxel]: the “Letal Dose (μM) LD25” value was determined as 0.004 µM in the assay with ES2 cells, 0.005 µM in the assay with SKOV3 cells, 0.002 µM with IGROV-1 cells and 0.003 µM in the assay on OVCAR8 cells.

Regarding `C#Cc1cccc(Nc2ncnc3cc(OCCOC)c(OCCOC)cc23)c1` [Tarceva, Erlotinib], the “Letal Dose (μM) LD25” value in the assay on A549 cells is 0 µM; in the assay on H1299 cells, more than 100 µM; in the assay on H1650 cells it was 0.4 µM; with H1975 cells, 3 µM; in the assay with HBEC RasV12 cells it was 0.001 µM; in the assay with HBEC wt cells, 0.04 µM. For the same compound, the “Cell viability (%)” value in the assay with A549 cells (setting [1]) was −52.89%; in the assay with A549 cells (setting [2]), −60.75%; with A549 cells (setting [3]), −67.3%; in the assay with H1299 cells (setting [1]) it was −39.83%; in the assay on H1299 cells (setting [2]), −60.68%; with H1299 cells (setting [3]), −61.14%. For the same compound, the “Cell viability (%)” value in the assay with H1650 cells (setting [1]) is reported as −47.11%; in the assay on H1650 cells (setting [2]) it was −38.72%; with H1650 cells (setting [3]) it was −53.13%; in the assay with H1975 cells (setting [1]) it was −49.68%; with H1975 cells (setting [2]), −77.63%; in the assay with H1975 cells (setting [3]), −56.6%. Further, the “Cell viability (%)” value with HBEC RasV12 cells (setting [1]) is recorded as −4.596%; in the assay on HBEC RasV12 cells (setting [2]), −25.67%; in the assay with HBEC RasV12 cells (setting [3]) it was 0.2682%; in the assay with HBEC wt cells (setting [1]), −15.63%; in the assay on HBEC wt cells (setting [2]) it was −55.15%; in the assay on HBEC wt cells (setting [3]), −37.28%.

For the compound `CC(=O)O[C@@]12CO[C@@H]1C[C@H](O)[C@@]1(C)C(=O)[C@H](O)C3=C(C)[C@@H](OC(=O)[C@H](O)[C@@H](NC(=O)OC(C)(C)C)c4ccccc4)C[C@@](O)([C@@H](OC(=O)c4ccccc4)[C@H]21)C3(C)C` [Docetaxel], the “Letal Dose (μM) LD25” value with A549 cells worked out at 0.0002 µM; with H1299 cells it was 0.007 µM; in the assay on H1650 cells, 0.0001 µM; in the assay with H1975 cells, 0.0008 µM; in the assay on HBEC RasV12 cells it was 0.0002 µM; in the assay on HBEC wt cells, 0.0002 µM. Further, the “Cell viability (%)” value with A549 cells (setting [1]) is 11.73%; in the assay on A549 cells (setting [2]), −49.02%; with A549 cells (setting [3]), −39.31%; with H1299 cells (setting [1]), −10.53%; in the assay with H1299 cells (setting [2]), −72.38%; in the assay with H1299 cells (setting [3]) it was −89.07%. The “Cell viability (%)” value with H1650 cells (setting [1]) is recorded as 23.41%; in the assay on H1650 cells (setting [2]), −41.32%; with H1650 cells (setting [3]), 0.1681%; with H1975 cells (setting [1]), 5.931%; in the assay with H1975 cells (setting [2]), −92.17%; in the assay on H1975 cells (setting [3]), −79.23%. Besides, the “Cell viability (%)” value in the assay on HBEC RasV12 cells (setting [1]) was 15.19%; in the assay on HBEC RasV12 cells (setting [2]) it was −88.64%; in the assay on HBEC RasV12 cells (setting [3]), −95.93%; with HBEC wt cells (setting [1]), 25.93%; with HBEC wt cells (setting [2]) it was −54.02%; with HBEC wt cells (setting [3]), −2.578%.

Regarding “VKKKKIKAEIKIPPHAFFVLKFWADLNWGPSGEEAGAG [TAZ]”, the “Letal Dose (μM) LD25” value was 6 µM in the assay on A549 cells; 5 µM in the assay with H1299 cells; more than 100 µM with H1650 cells; 3 µM in the assay with H1975 cells; 2.5 µM in the assay on HBEC RasV12 cells; 2.5 µM with HBEC wt cells. The “Letal Dose (μM) LD25” value in the assay with ES2 cells came out at 6 µM; in the assay on SKOV3 cells, 60 µM; in the assay with IGROV-1 cells it was 5 µM; in the assay on OVCAR8 cells it was 9 µM. For the same compound, the “Cell viability (%)” value with A549 cells (setting [1]) was −38%; in the assay on A549 cells (setting [4]), −7.835%; in the assay on H1299 cells (setting [1]) it was −24.71%; in the assay with H1299 cells (setting [4]) it was −8.413%; in the assay on H1650 cells (setting [1]), −30.68%; with H1650 cells (setting [4]), −2.439%. Further, the “Cell viability (%)” value in the assay with H1975 cells (setting [1]) was −49.35%; in the assay with H1975 cells (setting [4]), −13.21%; with HBEC RasV12 cells (setting [1]) it was −89.9%; in the assay with HBEC RasV12 cells (setting [4]) it was −53.02%; in the assay with HBEC wt cells (setting [1]), −58.16%; in the assay with HBEC wt cells (setting [4]), −66.15%. The “Cell viability (%)” value in the assay on ES2 cells (TAZ 10 μM vs HPCD 10%) is recorded as −46.33%; in the assay on ES2 cells (TAZ 25 μM vs HPCD 10%), −57.44%; with SKOV3 cells (TAZ 10 μM vs HPCD 10%) it was −26.64%; in the assay on SKOV3 cells (TAZ 25 μM vs HPCD 10%), −36.09%; in the assay with IGROV-1 cells (TAZ 10 μM vs HPCD 10%) it was −39.39%; in the assay on IGROV-1 cells (TAZ 25 μM vs HPCD 10%), −34%. Besides, the “Cell viability (%)” value in the assay with OVCAR8 cells (TAZ 10 μM vs HPCD 10%) is −18.7%; with OVCAR8 cells (TAZ 25 μM vs HPCD 10%) it was −24.69%.

Regarding `N.N.O=C([O-])C1(C(=O)[O-])CCC1.[Pt+2]` [Carboplatin], the “Letal Dose (μM) LD25” value came out at 10 µM in the assay with ES2 cells, 18 µM with SKOV3 cells, 30 µM in the assay with IGROV-1 cells and 30 µM with OVCAR8 cells.

`N.N.[Cl][Pt][Cl]` [Cisplatin]: the “Letal Dose (μM) LD25” value in the assay with A549 cells worked out at 3 µM; in the assay with H1299 cells it was 30 µM; with H1650 cells, 2 µM; in the assay on H1975 cells it was 30 µM; in the assay with HBEC RasV12 cells it was 1 µM; in the assay on HBEC wt cells, 2 µM. Moreover, the “Cell viability (%)” value is on record as −37.43% in the assay with A549 cells (setting [1]); −60.45% in the assay with A549 cells (setting [2]); −57.64% in the assay on A549 cells (setting [3]); −57.12% with H1299 cells (setting [1]); −73.62% with H1299 cells (setting [2]); −95.42% with H1299 cells (setting [3]). Also, the “Cell viability (%)” value in the assay on H1650 cells (setting [1]) is given as −55.41%; in the assay with H1650 cells (setting [2]), −77.26%; in the assay on H1650 cells (setting [3]), −83.01%; in the assay with H1975 cells (setting [1]), −76.57%; in the assay on H1975 cells (setting [2]), −85.91%; with H1975 cells (setting [3]), −97.93%. The “Cell viability (%)” value is −44.42% in the assay with HBEC RasV12 cells (setting [1]); −55.51% in the assay with HBEC RasV12 cells (setting [2]); −89.58% with HBEC RasV12 cells (setting [3]); −21.45% in the assay on HBEC wt cells (setting [1]); −77.04% in the assay on HBEC wt cells (setting [2]); −77.96% in the assay with HBEC wt cells (setting [3]).
